Source: US10889625B2, “Peptide-based methods for treating neurological injury” (THE REGENTS OF THE UNIVERSITY OF COLORADO, a body corporate, priority 2016, dated 2021)
Residues, ends and D or L forms follow the SMILES beside them.

What was measured:
[1] = mice, MCAO
TRPM2 channels = target: T1, TRPM2 channels (Mus musculus, UniProt Q91YD4); assay: 60 min tMCAO, total hemisphere infarct volume (TTC) in WT mice; type: in vivo; conditions: given 3 hours after MCAO
T1 construct: from tissue; host or cells: mouse brain in vivo; acute hippocampal/brain slices from mice
T1 sequence (Q91YD4 whole entry): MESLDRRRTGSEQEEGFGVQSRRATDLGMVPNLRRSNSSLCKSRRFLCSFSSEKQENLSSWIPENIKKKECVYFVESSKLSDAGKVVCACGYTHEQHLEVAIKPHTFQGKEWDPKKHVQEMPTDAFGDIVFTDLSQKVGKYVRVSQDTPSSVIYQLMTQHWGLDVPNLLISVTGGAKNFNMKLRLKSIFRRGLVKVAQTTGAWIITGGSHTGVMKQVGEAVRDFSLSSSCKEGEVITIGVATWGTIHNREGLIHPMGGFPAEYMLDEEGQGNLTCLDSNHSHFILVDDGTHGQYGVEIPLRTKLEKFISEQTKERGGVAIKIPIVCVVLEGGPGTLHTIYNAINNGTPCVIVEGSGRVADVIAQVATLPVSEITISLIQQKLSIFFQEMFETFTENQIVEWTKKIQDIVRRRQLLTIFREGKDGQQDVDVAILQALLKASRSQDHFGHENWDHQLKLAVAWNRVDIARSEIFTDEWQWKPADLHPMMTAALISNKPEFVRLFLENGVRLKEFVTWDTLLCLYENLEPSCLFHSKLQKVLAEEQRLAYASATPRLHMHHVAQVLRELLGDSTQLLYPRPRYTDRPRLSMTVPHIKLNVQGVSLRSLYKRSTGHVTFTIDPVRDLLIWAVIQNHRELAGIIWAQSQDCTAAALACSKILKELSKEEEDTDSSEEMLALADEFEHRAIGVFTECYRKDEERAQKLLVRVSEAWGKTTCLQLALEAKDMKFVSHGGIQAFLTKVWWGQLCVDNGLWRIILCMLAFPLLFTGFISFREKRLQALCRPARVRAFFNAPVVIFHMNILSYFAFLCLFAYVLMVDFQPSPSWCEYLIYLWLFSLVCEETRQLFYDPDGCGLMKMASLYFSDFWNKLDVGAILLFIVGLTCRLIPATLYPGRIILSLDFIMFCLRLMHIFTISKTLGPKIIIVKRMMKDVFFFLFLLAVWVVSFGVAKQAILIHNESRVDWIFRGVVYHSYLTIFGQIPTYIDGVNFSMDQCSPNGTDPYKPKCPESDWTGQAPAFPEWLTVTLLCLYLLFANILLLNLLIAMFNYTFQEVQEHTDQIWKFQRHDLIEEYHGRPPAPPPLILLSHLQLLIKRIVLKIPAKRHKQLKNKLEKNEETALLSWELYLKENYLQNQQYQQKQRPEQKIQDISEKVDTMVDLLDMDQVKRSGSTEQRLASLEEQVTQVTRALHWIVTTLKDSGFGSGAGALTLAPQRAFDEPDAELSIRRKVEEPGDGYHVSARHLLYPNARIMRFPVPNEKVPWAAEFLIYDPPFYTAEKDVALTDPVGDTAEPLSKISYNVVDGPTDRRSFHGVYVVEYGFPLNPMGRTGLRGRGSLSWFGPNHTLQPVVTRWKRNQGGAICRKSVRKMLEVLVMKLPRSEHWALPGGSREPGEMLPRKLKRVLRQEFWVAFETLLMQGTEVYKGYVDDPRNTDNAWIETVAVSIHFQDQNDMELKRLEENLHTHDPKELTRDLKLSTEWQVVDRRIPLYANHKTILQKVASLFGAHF

TRPM2 ion channels = TRPM2 ion channels (Mus musculus, UniProt Q91YD4); conditions: males and females, background statement; cited from earlier work
Sequence of TRPM2 ion channels (Q91YD4 whole entry): as above

Compound | effect on physiological variables such as blood pressure [1] | infarct volume (TRPM2 channels) | infarct size following stroke (TRPM2 ion channels)
CSCC[C@H](NC(=O)[C@H](CCC(=O)O)NC(=O)CNC(=O)[C@@H]1CCCN1C(=O)[C@H](CCC(=O)O)NC(=O)[C@H](CCCNC(=N)N)NC(=O)[C@H](CO)NC(=O)CNC(=O)[C@H](CCCNC(=N)N)NC(=O)[C@H](CCCNC(=N)N)NC(=O)[C@H](CCCNC(=N)N)NC(=O)[C@H](CCC(N)=O)NC(=O)[C@H](CCCNC(=N)N)NC(=O)[C@H](CCCNC(=N)N)NC(=O)[C@H](CCCCN)NC(=O)[C@H](CCCCN)NC(=O)[C@H](CCCNC(=N)N)NC(=O)CNC(=O)[C@@H](N)Cc1ccc(O)cc1)C(=O)N[C@@H](CC(C)C)C(=O)N1CCC[C@H]1C(=O)N[C@@H](CCCNC(=N)N)C(=O)N[C@@H](CCCCN)C(=O)N[C@@H](CC(C)C)C(=O)N[C@@H](CCCCN)C(=O)N[C@@H](CCCNC(=N)N)C(=O)N[C@H](C(=O)N[C@@H](CC(C)C)C(=O)N[C@@H](CCCNC(=N)N)C(=O)N[C@@H](CCC(N)=O)C(=O)N[C@@H](CCC(=O)O)C(=O)N[C@@H](Cc1ccccc1)C(=O)N[C@@H](Cc1c[nH]c2ccccc12)C(=O)N[C@H](C(=O)O)C(C)C)C(C)C [tat-M2NX] (H-YGRKKRRQRRRGSREPGEMLPRKLKRVLRQEFWV-OH; N-terminus and C-terminus assumed) | no effect | – | –
Clc1ccccc1C(c1ccccc1)(c1ccccc1)n1ccnc1 [CTZ, clotrimazole] | – | 46.8±7.4% | reduces infarct size in males, but not females
